Series [1] relates to MDR1. The series is described as follows: Apparent permeability from basolateral to apical side in MDCK2 cells expressing MDR1 by gamma counting. The series is classed as ADME, cell-based, Canis lupus familiaris, MDCK-II. Particulars: dog, MDCK-MDR1; call rule not given here.
Series [2] relates to MDR1. The series is described as follows: Efflux ratio of permeability from basolateral to apical side over apical to basolateral side in MDCK2 cells expressing MDR1 by gamma counting. Format: ADME, cell-based, Canis lupus familiaris, MDCK-II. To be noted: dog, MDCK-MDR1.
Series [3] concerns MDR1. The series is described as follows: Apparent permeability from apical to basolateral side in MDCK2 cells expressing MDR1 by gamma counting. Format: ADME, cell-based, Canis lupus familiaris, MDCK-II. Particulars: dog, MDCK-MDR1.
A short description of series [4]: Metabolic stability human liver microsomes assessed as compound oxidation after 90 mins by UPLC analysis. The series is classed as ADME, Microsome. To be noted: read-out: Drug metabolism.
For series [5], the system named is Liver microsomes. The series is described as follows: Metabolic stability rat liver microsome after 90 mins by UPLC analysis. Format: ADME. To be noted: 1.5 h.
For series [6], the target named is T1, Histamine H3 receptor (Rattus norvegicus, UniProt Q9QYN8). The series is described as follows: Binding affinity to rat cerebral cortex histamine H3 receptor. Format: tissue-based.
In series [7] the test system is Thalamus. The series is described as follows: Drug uptake in Sprague-Dawley rat thalamus at 0.01 nM in presence of 100 uM histamine after 45 mins by autoradiography. The series is classed as ADME, tissue-based. To be noted: 10 pM.
The next series deals with Cerebellum. The series is described as follows: Drug uptake in Sprague-Dawley rat cerebellum at 0.01 nM after 45 mins by autoradiography. Particulars: 10 pM. The series is classed as ADME, tissue-based.
A short description of series [8]: Drug uptake in Sprague-Dawley rat intraorbital lacrimal gland at 29.1 MBq after 70 to 100 mins post injection by PET imaging. The series is classed as ADME, tissue-based. To be noted: in vivo.
For a further series, the system named is Plasma. The series is described as follows: Metabolic stability human plasma at 60 MBq after 60 mins by UPLC analysis. Format: ADME, cell-free. Particulars: 1 h.
The subject of series [9] is Hippocampus. The series is described as follows: Drug uptake in Sprague-Dawley rat hippocampus at 0.01 nM after 45 mins by autoradiography. Format: ADME, tissue-based. Particulars: 10 pM.
Series [10] can be described thus: Drug uptake in Sprague-Dawley rat salivary gland at 29.1 MBq after 70 to 100 mins post injection by PET imaging. The series is classed as ADME, tissue-based. To be noted: in vivo.
Series [11] relates to Striatum. The series is described as follows: Drug uptake in Sprague-Dawley rat striatum at 0.01 nM in presence of 100 uM histamine after 45 mins by autoradiography. Format: ADME, tissue-based. Particulars: 10 pM.
Series [12] is described as follows: Permeability from basolateral to apical side in MDCK2 cells by gamma counting. The series is classed as ADME, cell-based, Canis lupus familiaris. To be noted: dog, mdck-ii.
The subject of series [13] is Cerebral cortex. The series is described as follows: Drug uptake in Sprague-Dawley rat cerebral cortex at 0.01 nM in presence of 100 uM histamine after 45 mins by autoradiography. To be noted: 10 pM. The series is classed as ADME, tissue-based.
A short description of series [14]: Drug uptake in Sprague-Dawley rat Spinal colum at 29.1 MBq after 70 to 100 mins post injection by PET imaging. Format: ADME. To be noted: in vivo.
A short description of series [15]: Drug uptake in Sprague-Dawley rat skeleton joint at 29.1 MBq after 70 to 100 mins post injection by PET imaging. Format: ADME, tissue-based. Particulars: in vivo.
For series [16], the system named is Rattus norvegicus. The series is described as follows: Stability in Sprague-Dawley rat assessed as parent compound level at 250 MBq, iv measured 5 to 30 mins post dose. Format: ADME, organism-based. Particulars: in vivo.
Series [17] has as its system Rattus norvegicus. The series is described as follows: Drug uptake in Sprague-Dawley rat at 29.1 MBq after 70 to 100 mins post injection coadministered with 1 mg/kg ST900 by PET imaging. Particulars: in vivo. On the set-up: dose 1 mg/kg. Format: ADME, organism-based.
A further series concerns Liver. The series is described as follows: Drug uptake in Sprague-Dawley rat liver at 29.1 MBq after 70 to 100 mins post injection by PET imaging. The series is classed as ADME, tissue-based. To be noted: in vivo.
The nature of series [18]: Drug uptake in Sprague-Dawley rat thyroid gland at 29.1 MBq after 70 to 100 mins post injection by PET imaging. Format: ADME, tissue-based. To be noted: in vivo.
Series [19] relates to Cerebral cortex. The series is described as follows: Drug uptake in Sprague-Dawley rat Cerebral cortex at 29.1 MBq after 70 to 100 mins post injection by PET imaging. Format: ADME, tissue-based. Particulars: in vivo.
For series [20], the system named is Rattus norvegicus. The series is described as follows: Drug uptake in Sprague-Dawley rat at 29.1 MBq after 70 to 100 mins post injection coadministered with 2 mg/kg ciproxifan by PET imaging. Format: ADME, organism-based. On the set-up: dose 2 mg/kg. Particulars: in vivo.
For series [21], the system named is Hippocampus. The series is described as follows: Drug uptake in Sprague-Dawley rat hippocampus at 0.01 nM in presence of 100 uM histamine after 45 mins by autoradiography. Particulars: 10 pM. The series is classed as ADME, tissue-based.
Series [22] can be described thus: Distribution coefficient, log D of the compound in octanol and PBS buffer at pH 7.4 by shake-flask method. The series is classed as physicochemical.
Another series has as its system Adrenal gland. The series is described as follows: Drug uptake in Sprague-Dawley rat adrenal gland at 29.1 MBq after 70 to 100 mins post injection by PET imaging. To be noted: in vivo. The series is classed as ADME, tissue-based.
The target in series [23] is T1, Histamine H3 receptor. The series is described as follows: Binding affinity to rat brain histamine H3 receptor after 1 hr by gamma counting.
The nature of series [24]: Drug level in Sprague-Dawley urine rat assessed as parent compound level at 250 MBq, iv measured 30 mins post dose. Format: ADME, organism-based. Particulars: in vivo, 0.5 h.
Series [25] is described as follows: Drug uptake in Sprague-Dawley rat urinary bladder at 29.1 MBq after 70 to 100 mins post injection by PET imaging. The series is classed as ADME, tissue-based. Particulars: in vivo.
Series [26] in a line: Permeability from apical to basolateral side in MDCK2 cells by gamma counting. To be noted: dog, mdck-ii. Format: ADME, cell-based, Canis lupus familiaris.
The subject of series [27] is Thalamus. The series is described as follows: Drug uptake in Sprague-Dawley rat thalamus at 0.01 nM after 45 mins by autoradiography. Format: ADME, tissue-based. To be noted: 10 pM.
Series [28] deals with Liver microsomes. The series is described as follows: Metabolic stability human liver microsome after 120 mins by UPLC analysis. The series is classed as ADME. Particulars: 2 h.
Series [29] deals with Liver microsomes. The series is described as follows: Metabolic stability rat liver microsome after 120 mins by UPLC analysis. Format: ADME. Particulars: 2 h.
Series [30] can be described thus: Metabolic stability human plasma assessed as parent compound level at 60 MBq after 90 mins by UPLC analysis. Format: ADME, cell-free. To be noted: read-out: Stability.
The target of series [31] is T1, Histamine H3 receptor. The series is described as follows: Binding affinity to rat histamine H3 receptor low affinity site after 1 hr by Schard plot analysis.
A further series relates to Kidney. The series is described as follows: Drug uptake in Sprague-Dawley rat kidney pelvis at 29.1 MBq after 70 to 100 mins post injection by PET imaging. The series is classed as ADME, tissue-based. To be noted: in vivo.
A short description of series [32]: Drug uptake in Sprague-Dawley rat harderin gland at 29.1 MBq after 70 to 100 mins post injection by PET imaging. The series is classed as ADME, tissue-based. To be noted: in vivo.
Series [33] relates to Striatum. The series is described as follows: Drug uptake in Sprague-Dawley rat striatum at 0.01 nM after 45 mins by autoradiography. The series is classed as ADME, tissue-based. Particulars: 10 pM.
Series [34] concerns Cerebral cortex. The series is described as follows: Drug uptake in Sprague-Dawley rat cerebral cortex at 0.01 nM after 45 mins by autoradiography. Format: ADME, tissue-based. To be noted: 10 pM.
For series [35], the system named is Striatum. The series is described as follows: Drug uptake in Sprague-Dawley rat Striatum at 29.1 MBq after 70 to 100 mins post injection by PET imaging. Format: ADME, tissue-based. Particulars: in vivo.
The subject of the next series is Intestine. The series is described as follows: Drug uptake in Sprague-Dawley rat intestine at 29.1 MBq after 70 to 100 mins post injection by PET imaging. Format: ADME, tissue-based. To be noted: in vivo.
Series [36] in a line: Metabolic stability human plasma assessed as compound degradation at 60 MBq after 120 mins by UPLC analysis. To be noted: read-out: Drug degradation. Format: ADME, cell-free.

The structures appear in SMILES notation.

T1 sequence (Q9QYN8 whole entry): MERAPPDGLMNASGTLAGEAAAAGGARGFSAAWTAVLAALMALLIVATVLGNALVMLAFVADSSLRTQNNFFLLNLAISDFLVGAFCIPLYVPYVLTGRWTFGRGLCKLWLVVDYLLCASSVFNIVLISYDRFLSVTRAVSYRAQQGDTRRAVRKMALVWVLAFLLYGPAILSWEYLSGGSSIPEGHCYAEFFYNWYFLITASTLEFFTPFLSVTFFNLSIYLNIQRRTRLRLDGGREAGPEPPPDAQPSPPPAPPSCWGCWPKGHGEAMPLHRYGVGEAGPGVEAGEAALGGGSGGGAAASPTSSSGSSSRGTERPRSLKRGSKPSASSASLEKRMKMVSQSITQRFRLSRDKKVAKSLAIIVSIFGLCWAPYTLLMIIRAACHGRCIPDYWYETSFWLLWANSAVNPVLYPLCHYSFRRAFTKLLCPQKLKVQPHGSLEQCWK

For `CC[C@]1(O)C[C@@H]2CN(CCc3c([nH]c4ccccc34)[C@@](C(=O)OC)(c3cc4c(cc3OC)N(C)[C@H]3[C@@](O)(C(=O)OC)[C@H](OC(C)=O)[C@]5(CC)C=CCN6CC[C@]43[C@@H]65)C2)C1` [VINBLASTINE], the Papp B→A in the series on MDR1 [1] worked out at 3.24 ×10⁻⁶ cm/s. Besides, the efflux ratio in the series with MDR1 [2] came to 15. Moreover, the Papp A→B with MDR1 [3] turned out to be 0.22 ×10⁻⁶ cm/s.
`C[C@]12CC[C@H]3[C@@H](CCC4=CC(=O)CC[C@@]43C)[C@@H]1CC[C@@H]2O` [TESTOSTERONE]: in series [4], the metabolised at 1.5 h was 60%. Besides, the Stability result in the series on Liver microsomes [5] is listed as “Unstable”.
The compound `O=C(O)c1cn(C2CC2)c2cc(N3CCNCC3)c(F)cc2c1=O` [CIPROFLOXACIN] gave a Ki at Histamine H3 receptor [6] of 0.654 nM. That is a sub-nanomolar value.
On to `[18F]C1CCN(Cc2ccc(OCCCN3CCCCC3)cc2)CC1`, for which the Drug uptake entry in the series on Thalamus [7] is “Not Active”; with Cerebellum it was “Not Active”; in series [8], “Active”; with Hippocampus [9], “Active”; in series [10], “Active”; with Striatum [11], “Not Active”. The Drug uptake entry is listed as “Not Active” in the series on Cerebral cortex [13]; “Active” in series [14]; “Active” in [15]; “Active” in the series on Rattus norvegicus [17]; “Active” in the series on Liver; “Active” in [18]. In addition, the Drug uptake entry in the series on Cerebral cortex [19] is “Not Active”; with Rattus norvegicus [20], “Active”; in the series on Hippocampus [21], “Not Active”; with Adrenal gland, “Active”; in series [24], 90%; in series [25] it was “Active”. Moreover, the Drug uptake entry was “Active” with Thalamus [27]; “Active” in the series with Kidney; “Active” in [32]; “Active” with Striatum [33]; “Active” in the series with Cerebral cortex [34]; “Not Active” in the series on Striatum [35]. In addition, in the series with Intestine, the Drug uptake entry is “Active”. In the series on MDR1 [1], the apparent permeability from basolateral to apical (Papp B→A) worked out at 0.12 ×10⁻⁶ cm/s. Besides, the Stability result with Plasma, in the series with Rattus norvegicus [16], with Liver microsomes [28] and with Liver microsomes [29] was “Stable” each time. The permeability entry in [12] and in series [26] was “permeable” each time. In addition, in series [22], the logD stood at 0.35. Besides, the Kd at Histamine H3 receptor [23] was 0.34 nM; at Histamine H3 receptor [31], more than 3 µM. Besides, the remaining at 1.5 h, 60 MBq in series [30] is 98%. The efflux ratio with MDR1 [2] was 0.8. Further, in series [36], the metabolised at 2 h, 60 MBq came out at 3%. Also, in the series on MDR1 [3], the Papp A→B worked out at 0.16 ×10⁻⁶ cm/s.

These data come from ChEMBL document CHEMBL2203285, “Radiofluorinated histamine H₃ receptor antagonist as a potential probe for in vivo PET imaging: radiosynthesis and pharmacological evaluation” (Bioorg Med Chem, 2012).
